# Test results reported in ChEMBL document CHEMBL1201862, “PubChem BioAssay data set” (2004).
# Calls of active or inactive are those of the source.
# Legend:
# [1] = molecular target: T1, Zinc finger protein mex-5 (Caenorhabditis elegans, UniProt Q9XUB2); experiment: potency of MEX-5 RNA-binding blockers – biochemical, C. elegans, fluorescence polarization, dose response (AID 1960)
# T1 sequence (Q9XUB2 whole entry): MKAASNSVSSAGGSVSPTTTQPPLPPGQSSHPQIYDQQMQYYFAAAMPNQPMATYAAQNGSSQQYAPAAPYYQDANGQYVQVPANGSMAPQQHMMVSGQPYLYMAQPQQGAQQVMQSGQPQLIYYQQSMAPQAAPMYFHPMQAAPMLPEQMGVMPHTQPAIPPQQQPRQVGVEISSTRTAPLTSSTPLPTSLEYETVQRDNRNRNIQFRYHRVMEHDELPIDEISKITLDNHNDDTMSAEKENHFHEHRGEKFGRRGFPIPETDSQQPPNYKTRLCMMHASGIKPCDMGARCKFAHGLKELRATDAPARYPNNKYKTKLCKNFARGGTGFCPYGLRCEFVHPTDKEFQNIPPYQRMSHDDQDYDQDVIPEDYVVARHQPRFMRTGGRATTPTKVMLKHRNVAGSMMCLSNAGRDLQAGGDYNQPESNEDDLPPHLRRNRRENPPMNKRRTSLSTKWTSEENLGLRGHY
# [2] = molecular target: T2, RNA-binding protein pos-1 (Caenorhabditis elegans, UniProt G5EF15); experiment: disruptors of C. elegans POS-1 RNA interaction – biochemical, fluorescence polarization, dose response (AID 1964);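 also: purified POS-1 fused to maltose binding protein made in E. coli; potency of compounds blocking POS-1 binding to fluorescent RNA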
# T2 sequence (G5EF15 whole entry): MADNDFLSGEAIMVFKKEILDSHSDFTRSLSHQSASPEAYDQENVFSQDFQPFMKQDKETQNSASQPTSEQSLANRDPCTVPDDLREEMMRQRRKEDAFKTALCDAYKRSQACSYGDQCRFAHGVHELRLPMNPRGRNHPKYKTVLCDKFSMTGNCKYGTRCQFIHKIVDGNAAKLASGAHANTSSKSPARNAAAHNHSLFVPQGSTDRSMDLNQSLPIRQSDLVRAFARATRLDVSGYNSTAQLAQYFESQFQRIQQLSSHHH
# Caspase-3 = molecular target: T3, Caspase-3 (Homo sapiens, UniProt P42574); assay type: functional;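 also: Dose-response selectivity test against caspase-3 for candidate inhibitors of sentrin-specific proteases (SENPs)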
# T3 sequence (P42574 whole entry): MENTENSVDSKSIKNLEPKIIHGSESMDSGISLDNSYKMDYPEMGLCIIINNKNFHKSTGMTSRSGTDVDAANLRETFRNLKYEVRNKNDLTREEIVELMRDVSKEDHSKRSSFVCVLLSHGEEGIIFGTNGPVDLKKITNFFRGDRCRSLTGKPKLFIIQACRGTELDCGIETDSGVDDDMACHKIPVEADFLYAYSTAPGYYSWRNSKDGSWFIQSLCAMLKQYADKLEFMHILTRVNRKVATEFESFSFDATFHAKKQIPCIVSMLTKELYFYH
# [3] = molecular target: T4, Sentrin-specific protease 8 (Homo sapiens, UniProt Q96LD8); assay type: functional;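 also: luminescence read-out of SENP8 inhibition, dose-response confirmation following an ultra-high-throughput screen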
# T4 sequence (Q96LD8 whole entry): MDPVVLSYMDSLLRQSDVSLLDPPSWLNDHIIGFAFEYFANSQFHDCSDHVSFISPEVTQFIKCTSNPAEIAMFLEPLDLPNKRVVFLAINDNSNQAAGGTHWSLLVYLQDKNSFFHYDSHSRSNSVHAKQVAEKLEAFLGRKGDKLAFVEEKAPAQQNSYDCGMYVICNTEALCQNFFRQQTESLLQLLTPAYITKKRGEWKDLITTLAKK
# [4] = molecular target: T5, Sentrin-specific protease 6 (Homo sapiens, UniProt Q9GZR1); assay type: functional;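 also: Luminescence-based dose-response confirmatory assay of SENP6 inhibition, following up an ultra-high-throughput screen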
# T5 sequence (Q9GZR1 whole entry): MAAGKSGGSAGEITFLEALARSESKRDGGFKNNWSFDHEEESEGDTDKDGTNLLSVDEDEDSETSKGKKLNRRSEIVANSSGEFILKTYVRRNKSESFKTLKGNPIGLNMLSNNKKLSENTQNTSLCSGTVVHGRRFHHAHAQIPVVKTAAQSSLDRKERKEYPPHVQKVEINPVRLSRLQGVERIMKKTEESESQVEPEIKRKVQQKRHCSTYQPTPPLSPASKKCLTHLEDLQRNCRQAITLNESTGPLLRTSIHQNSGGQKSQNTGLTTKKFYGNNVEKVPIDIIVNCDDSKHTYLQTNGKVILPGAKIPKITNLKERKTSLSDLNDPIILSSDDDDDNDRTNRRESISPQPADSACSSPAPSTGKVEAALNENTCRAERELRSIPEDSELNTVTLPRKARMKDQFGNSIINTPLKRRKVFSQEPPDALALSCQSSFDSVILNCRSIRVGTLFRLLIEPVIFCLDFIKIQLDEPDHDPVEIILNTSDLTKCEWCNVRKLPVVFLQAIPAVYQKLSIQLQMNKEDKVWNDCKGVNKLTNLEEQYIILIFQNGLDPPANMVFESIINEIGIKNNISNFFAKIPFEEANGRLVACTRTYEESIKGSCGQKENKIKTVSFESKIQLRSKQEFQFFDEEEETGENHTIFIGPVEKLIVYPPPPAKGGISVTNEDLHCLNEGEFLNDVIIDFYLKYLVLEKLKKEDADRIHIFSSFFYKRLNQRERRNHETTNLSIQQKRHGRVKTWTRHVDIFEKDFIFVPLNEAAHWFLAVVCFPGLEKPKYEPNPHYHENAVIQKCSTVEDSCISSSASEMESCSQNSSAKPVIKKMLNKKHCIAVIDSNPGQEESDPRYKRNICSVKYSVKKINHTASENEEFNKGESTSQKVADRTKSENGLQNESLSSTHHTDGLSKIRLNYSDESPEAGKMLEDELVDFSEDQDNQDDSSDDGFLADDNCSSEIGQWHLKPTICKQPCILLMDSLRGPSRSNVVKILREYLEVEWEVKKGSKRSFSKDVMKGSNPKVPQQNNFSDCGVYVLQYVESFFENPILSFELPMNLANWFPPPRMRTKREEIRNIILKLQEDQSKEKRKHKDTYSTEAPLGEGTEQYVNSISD
# [5] = molecular target: T6, Sentrin-specific protease 7 (Homo sapiens, UniProt Q9BQF6); assay type: functional;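 also: Luminescence-based dose-response confirmation of ultra-high-throughput screening hits, measuring inhibition of SENP7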
# T6 sequence (Q9BQF6 whole entry): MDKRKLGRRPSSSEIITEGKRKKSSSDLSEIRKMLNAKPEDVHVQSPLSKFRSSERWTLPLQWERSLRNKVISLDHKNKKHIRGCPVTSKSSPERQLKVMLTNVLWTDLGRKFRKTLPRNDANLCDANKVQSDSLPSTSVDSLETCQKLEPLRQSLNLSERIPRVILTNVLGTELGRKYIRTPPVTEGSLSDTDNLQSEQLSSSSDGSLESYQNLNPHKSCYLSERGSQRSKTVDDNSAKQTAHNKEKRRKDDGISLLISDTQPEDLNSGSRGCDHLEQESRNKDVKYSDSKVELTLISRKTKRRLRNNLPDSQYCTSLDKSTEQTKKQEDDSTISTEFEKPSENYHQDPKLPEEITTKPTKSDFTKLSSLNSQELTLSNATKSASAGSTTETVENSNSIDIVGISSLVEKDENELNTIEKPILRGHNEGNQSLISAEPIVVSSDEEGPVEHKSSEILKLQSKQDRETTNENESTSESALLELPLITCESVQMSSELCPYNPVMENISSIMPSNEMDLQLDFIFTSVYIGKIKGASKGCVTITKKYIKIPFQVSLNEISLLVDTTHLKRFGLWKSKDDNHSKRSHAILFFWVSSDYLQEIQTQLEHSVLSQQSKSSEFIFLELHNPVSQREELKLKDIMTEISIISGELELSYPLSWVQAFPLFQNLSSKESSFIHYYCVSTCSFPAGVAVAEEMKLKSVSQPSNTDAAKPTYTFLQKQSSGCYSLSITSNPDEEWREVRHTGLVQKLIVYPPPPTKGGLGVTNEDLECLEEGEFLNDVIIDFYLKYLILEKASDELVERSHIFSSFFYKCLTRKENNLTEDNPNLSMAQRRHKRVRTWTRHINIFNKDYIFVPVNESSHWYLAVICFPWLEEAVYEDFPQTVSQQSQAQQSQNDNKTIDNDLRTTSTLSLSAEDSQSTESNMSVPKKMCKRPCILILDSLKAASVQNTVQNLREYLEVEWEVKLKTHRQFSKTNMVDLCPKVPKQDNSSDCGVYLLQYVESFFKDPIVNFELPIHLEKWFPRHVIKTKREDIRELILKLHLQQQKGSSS
# [6] = molecular target: T7, Polyadenylate-binding protein 1 (Homo sapiens, UniProt P11940); experiment: MLLE binding blockers, Cy5 peptide tracer – biochemical, fluorescence polarization, Cy5-PAM2 peptide, secondary, miRNA deadenylation inhibitor project, dose response (AID 602260); assay type: functional; conditions: read-out: IC50_Mean
# T7 sequence (P11940 whole entry): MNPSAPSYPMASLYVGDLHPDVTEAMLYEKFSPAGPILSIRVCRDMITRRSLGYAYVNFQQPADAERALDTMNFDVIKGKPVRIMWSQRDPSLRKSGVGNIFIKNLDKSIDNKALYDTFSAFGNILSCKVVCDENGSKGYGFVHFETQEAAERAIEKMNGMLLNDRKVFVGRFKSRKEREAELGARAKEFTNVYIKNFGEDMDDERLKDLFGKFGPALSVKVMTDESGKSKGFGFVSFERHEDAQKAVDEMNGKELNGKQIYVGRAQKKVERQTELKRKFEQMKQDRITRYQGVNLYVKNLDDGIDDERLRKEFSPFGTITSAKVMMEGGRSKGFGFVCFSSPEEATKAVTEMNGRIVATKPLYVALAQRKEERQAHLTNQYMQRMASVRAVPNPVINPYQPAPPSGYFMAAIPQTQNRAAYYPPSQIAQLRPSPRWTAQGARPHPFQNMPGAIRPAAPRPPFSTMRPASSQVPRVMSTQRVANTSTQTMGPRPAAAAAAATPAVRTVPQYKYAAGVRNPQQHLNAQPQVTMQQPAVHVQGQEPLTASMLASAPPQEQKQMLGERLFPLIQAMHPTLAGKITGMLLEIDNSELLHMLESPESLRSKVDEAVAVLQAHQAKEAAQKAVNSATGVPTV
# [7] = molecular target: T8, Ubiquitin-conjugating enzyme E2 N (Homo sapiens, UniProt P61088); assay type: functional;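 also: Dose-response confirmation in a TR-FRET assay detecting UBC13-driven polyubiquitin chain formation, inhibition measured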
# T8 sequence (P61088 whole entry): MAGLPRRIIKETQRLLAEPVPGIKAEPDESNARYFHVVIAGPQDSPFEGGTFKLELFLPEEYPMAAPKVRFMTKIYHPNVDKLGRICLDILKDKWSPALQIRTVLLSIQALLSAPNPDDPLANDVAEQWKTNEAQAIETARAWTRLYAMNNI
# [8] = molecular target: T7, Polyadenylate-binding protein 1; experiment: MLLE domain peptide-binding blockers, IC50 – biochemical, fluorescence polarization, FITC-PAM2 peptide, dose response (AID 602259); assay type: functional; conditions: read-out: IC50_Mean
# [9] = viability of uninfected HEp-2 cells – cell-based, HTS, cytotoxicity control for RSV inhibitor project, dose response (AID 2410); assay type: functional; conditions: human respiratory syncytial virus
# Caspase-6 = molecular target: T9, Caspase-6 (Homo sapiens, UniProt P55212); experiment: inhibition of CASP6 peptide cleavage – biochemical, VEID-R110 fluorescence, cherry-pick, dose response (AID 720632)
# T9 sequence (P55212 whole entry): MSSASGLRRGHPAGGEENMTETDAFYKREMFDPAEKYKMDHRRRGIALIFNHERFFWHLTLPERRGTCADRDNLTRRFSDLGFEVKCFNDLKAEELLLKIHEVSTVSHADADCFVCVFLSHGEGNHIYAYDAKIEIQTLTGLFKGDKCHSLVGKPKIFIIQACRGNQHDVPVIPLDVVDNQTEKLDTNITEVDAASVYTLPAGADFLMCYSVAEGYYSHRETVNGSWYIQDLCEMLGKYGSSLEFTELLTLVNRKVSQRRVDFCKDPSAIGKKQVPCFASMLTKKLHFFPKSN
# [10] = Trypanosoma cruzi growth suppression in host cells – NIH3T3 host cells, beta-gal luminescence, confirmation (AID 2044); assay type: functional, cell-based;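 also: intracellular parasites grown in NIH/3T3 mouse fibroblasts as host cells; luminescent beta-galactosidase reporter signal from transgenic T. cruzi replicating inside host cells; inhibitors lower the luminescence signal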
# [11] = NIH3T3 cell viability loss – ATP luminescence, mouse fibroblasts, counter-screen, dose response (AID 2010); assay type: functional, cell-based;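 also: cells exposed to compound for about 90 hours before reading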
# INS1 = experiment: INS-1E survival protection against cytokine death – cell-based, luminescence, retest, dose response (AID 449756); assay type: functional; conditions: Rattus norvegicus;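 also: cell death triggered by IL-1 beta plus TNF-alpha plus IFN-gamma mixture; protective hits raise ATP signal compared with cytokine alone wells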
# cells [12] = assay type: functional, cell-based
# cells [13] = assay type: functional, cell-based; remark: listed apart in the source
# [14] = microbe, parasite or virus in culture; assay type: functional; conditions: Mycobacterium tuberculosis
# Vero = experiment: cells; assay type: functional; conditions: Chlorocebus sabaeus
structure (smiles),measurement,setting,value
CCN(CC)c1ccc(N/C=C2/C(=O)NC(=O)N(c3ccc(OC)cc3)C2=O)cc1,EC50,[1],6.36 µM (active)
same,EC50,[2],9.58 µM (inconclusive)
CCN(CC)c1ccc(C(=O)OCC(=O)Nc2sccc2C#N)cc1,IC50,Caspase-3,37.3 µM (active)
same,IC50,[3],89.1 µM (active)
same,IC50,[4],11.5 µM (active)
same,IC50,[5],11.6 µM (active)
O=C1NC(=O)N(CCc2ccccc2)C(=O)/C1=C/NCCCn1ccnc1,EC50,[1],> 300 µM (not active)
same,EC50,[2],> 300 µM (not active)
NC(=S)N=Nc1c(O)[nH]c2cc(F)c(F)cc12,IC50,[6],> 66 µM (inactive)
same,IC50,[7],> 20 µM (inactive)
same,IC50,[8],> 66 µM (inactive)
same,CC50,[9],40 µM (active)
COc1ccc(CNC(=O)CN(Cc2ccc(Cl)cc2)C(=O)c2csnn2)cc1,IC50,[6],> 66 µM (inactive)
same,IC50,[8],> 66 µM (inactive)
C=CCOc1cccc(C2C(C(=O)c3ccco3)=C(O)C(=O)N2Cc2ccco2)c1 (stereo not drawn),EC50,[1],> 300 µM (not active)
same,EC50,[2],> 300 µM (not active)
O=C(O)c1ccccc1NS(=O)(=O)c1ccc(NN=Cc2cccc(Cl)c2)c([N+](=O)[O-])c1,AC50,Caspase-6,24.5 µM (active)
O=C(NCc1ccccc1Cl)c1ccc2[nH]cnc2c1,AC50,Caspase-6,28.1 µM (active)
COc1ccc(/C(O)=C/C2=NCC3c4ccccc4CCN3C2=O)cc1 (stereo not drawn),EC50,[1],> 300 µM (not active)
same,EC50,[2],> 300 µM (not active)
O=C(CSC1c2ccccc2-c2ccccc21)N/N=C/c1ccccc1O,EC50,[10],2.55 µM (active)
same,IC50,[6],> 66 µM (inactive)
same,EC50,[11],9.08 µM (active)
same,AC50,INS1,2.03 µM (active)
same,IC50,[8],> 66 µM (inactive)
same,EC50,cells [12],> 350 µM (not active)
same,EC50,cells [13],12.9 µM (active)
COc1nccnc1NS(=O)(=O)c1ccc(NC(=S)NC(=O)c2ccc(F)cc2)cc1,IC50,[6],> 66 µM (inactive)
same,IC50,[8],> 66 µM (inactive)
CC1(C)Cc2c(sc(NC(=O)c3ccc4c(c3)OCCO4)c2C(N)=O)C(C)(C)N1,IC50,[7],> 20 µM (inactive)
Fc1cccc2sc(N3CCCCC3)nc12,IC50,Caspase-3,10.7 µM (active)
same,IC50,[3],60.5 µM (active)
same,IC50,[4],30.3 µM (active)
same,IC50,[5],7.98 µM (active)
CCSc1nc(=S)n(-c2ccccc2)c(C)c1C(C)=O,IC50,[6],> 66 µM (inactive)
same,IC50,[8],> 66 µM (inactive)
Oc1ccc(C[C@H]2CNCCN2CCCCC2CCCCC2)cc1,IC50,[7],> 20 µM (inactive)
same,CC50,[14],13.2 µM (active)
CSC1=NC(/C=C/c2ccc(Cl)cc2Cl)=CC(C)(C)N1,CC50,Vero,17.4 µM (active)
COc1ccc(-c2nc3cnccn3c2NC(C)(C)CC(C)(C)C)cc1O,CC50,Vero,> 25 µM (active)
O=C(CCCCCn1c(=O)[nH]c2ccccc2c1=O)NCCCN1CCN(c2ccccc2F)CC1,IC50,[7],> 20 µM (inactive)
NS(=O)(=O)c1ccc(CCNC(=O)C2CCN(c3ncnc4c3nc3n4CCCCC3)CC2)cc1,IC50,[7],> 20 µM (inactive)
O=C(Nc1ccccc1[N+](=O)[O-])c1cc(S(=O)(=O)N2CCOCC2)cs1,CC50,Vero,18.3 µM (active)
